This is an account of results in patent EP1525798B1, “Carbohydrate oxidase and use thereof in baking” (Novozymes A/S, priority 1997, dated 1999).

This assay concerns T1, carbohydrate oxidase from M. nivale (Microdochium nivale CBS 100236, SEQ ID NO: 2), wild type.
T1 construct: made in house
Kind of assay: Steady state kinetics (apparent Km) by the 4AA-TOPS assay. The assay is classed as biochemical. The conditions noted are these: apparent value from Lineweaver-Burke plot, simple Michaelis-Menten kinetics assumed, carbohydrate substrate concentration varied, phosphate/citrate pH 6. On the procedure:
Assays are carried out in 96 well microtiter plates. 100 µl 0.1 M phosphate/citrate, pH 6 is mixed with 50 µl 0.24 M glucose and 50 µl pre-mix (3 mM 4-aminoantipyrine (4AA), 7 mM N-ethyl-N-sulfopropyl-m-toluidine (TOPS), 40 PODU/ml rCiP) and the reaction is started by adding 40 µl of oxidase solution diluted appropriately. Absorption is measured at 490 nm as a function time using the Vmax microtiter plate ready from Molecular Devices and the activity is taken as the slope of the linear increase in absorption.
Steady state kinetics was conducted by varying the concentration of the carbohydrate substrates and determining the carbohydrate oxidase activity by the 4AA-TOPS assay. Simple Michaelis-Menten kinetics was assumed although the reaction is not a simple one substrate-one product mechanism (E+S↔ES↔E+P).
The steady state kinetics for the carbohydrate oxidase from M. nivale were investigated using some of the preferred substrates. Kinetic constants were obtained from a Lineweaver-Burke plot, assuming simple Michaelis-Menten kinetics (although this is a rather poor assumption) to obtain apparent values "Km" and "Vmax" for various substrates.
On to `OC[C@H]1O[C@H](O[C@H]2[C@H](O)[C@@H](O)C(O)O[C@@H]2CO)[C@H](O)[C@@H](O)[C@@H]1O` (mixture of isomers) [Maltose], for which the Km (usually the concentration of substrate that gives half-maximal velocity) stood at 11 mM.

Take `O=C[C@H](O)[C@@H](O)[C@H](O[C@@H]1O[C@H](CO)[C@@H](O)[C@H](O)[C@H]1O)[C@H](O)CO` [Cellobiose]: the Km came to 59 mM. In the case of `OC[C@H]1OC(O)[C@H](O)[C@@H](O)[C@@H]1O` (stereo partly drawn) [Glucose] it was 42 mM.
